Marks after values point to notes of the source that are not given here.
Key:
[1] = tested on: human primary hepatocytes; test: NAD+/NADH quantification in human hepatocytes; format: cell-based; design: NADtot / NADH / NAD+ / NAD+/NADH: unit not given here; conditions: 48 h + 3 h
Excerpt: For the measurement of total NAD (NADtot=NADH+NAD^+) and NAD^+/NADH ratio, a NAD^+/NADH Quantification kit (MAK037) from Sigma was used. NAD functions as an electron carrier, fluctuating between the oxidized (NAD^+) and reduced (NADH) forms. In addition, NAD^+ plays critical roles in ADP-ribosylation reaction and as a substrate for sirtuins. According to the Sigma instruction, the NAD^+/NADH Quantification kit (Sigma) provides a convenient tool for sensitive detection of NAD, NADH and their ratio without requirement to purify them from samples. Important to notice is that the kit measures NADH and NAD^+ in whole cell including all cell organelles and compartments. Mitochondrial matrix is clearly dominant NADH producer from TCA and beta oxidation (consuming naturally the same amount of NAD^+ in redox reactions). Importantly, formed NADH is also typically oxidized into NAD^+ in the matrix by Complex I in ETC. As is well known anaerobic carbohydrate metabolism, i.e. glycolysis, in cytosol also consumes NAD^+ and produces NADH.
Cell culture in NADH-tests was like in Example 1.1. The change of the medium with DGAcs was conducted at 0 h, 24 h and 48 h. NAD measurements were made at 48+3 h in all cases. For CDP also HPA was tested, and for DOO no new nutrition at 48 h was added, i.e. test was conducted in fasting conditions.

[2] = Hepatic free glycerol after 3 week feeding; format: in vivo, rat
Excerpt: From the above experiment altogether 12 rats were chosen from 0.1 g/kg/day DGAcs group (N=6) and zero control (N=6) for a measurement of free glycerol from liver samples. Liver samples contained also blood entering the liver from other tissues, thus on top of hepatic tissues the samples reflect also the metabolic situation in other tissues of the body than just the liver.
In this experiment nutrition intake, except of course for DGAcs, was controlled to be exactly the same during the experimental day, and three day before the experiment. For AA rats, that are used to alcohol but didn't receive any alcohol in 3 day before the experiment, catabolic redox-activity in the cytosol was controlled by giving rats ethanol (equaling 1.2 per mille blood alcohol concentration, which represents only mild alcohol intoxication to the AA rats). The rate of ethanol oxidation remained the same in all groups.
Experimental session started at 8:00 to 9:00 am. To diminish possible pain during the experiments, all animals were injected subcutaneously with buprenorphine (0.01 mg/kg) a few minutes before the blood samples. During the experimental session no difference in other metabolic activity, e.g. rate of ethanol oxidation, between the control and treatment group was detected from blood samples. Immediately after the last blood sample, the animals were anesthetized with pentobarbital (40 mg/kg IP, 1% [wt/vol] in saline). Thereafter (5-10 minutes), liver pieces were quickly (within 2-4 seconds) excised and freeze-clamped. Liver samples were stored at […] until glycerol determination. […] The resulting supernatants were used for free glycerol measurement with an enzymatic end point commercial assay kit (Boehringer-Mannheim, R-Biopharm, Darmstadt, Germany) according to the manufacturer's protocol except that the assays were modified for use with small volumes of supernatant using a 96-well microplate reader (Labsystems Multiskan RS, Helsinki, Finland). […]

[3] = donor alpha, new nutrition at 48 h, N = 5, 1.4 (μM)
[4] = donor alpha, new nutrition at 48 h, N = 5, 14 (μM)
[5] = donor one, new nutrition at 48 h, N = 5, 1.4 (μM)
[6] = donor one, new nutrition at 48 h, N = 5, 14 (μM)
[7] = donor three, no new nutrition at 48 h (fasting), N = 3, 1.4 (μM)
[8] = donor three, no new nutrition at 48 h (fasting), N = 3, 14 (μM)

In the case of `O.O.O=C([O-])[C@H](O)CO.O=C([O-])[C@H](O)CO.[Ca+2]` [DGAcs, D-glyceric acid, calcium salt dehydrate], the “Change in NAD+/NADH vs. Control” value [1, 3] is reported as −53%, the “NAD+” value [1, 3] is reported as 0.009 and the “NAD+/NADH” value [1, 3] is reported as 0.040. The NADH [1, 3] was 0.222, the NADtot [1, 3] was 0.231 and the “Change in NAD+/NADH vs. Control” value [1, 4] was −62%. For the same compound, the “NAD+” value [1, 4] was 0.007, the “NAD+/NADH” value [1, 4] was 0.032 and the NADH [1, 4] was 0.225. The NADtot [1, 4] was 0.232, the “Change in NAD+/NADH vs. Control” value [1, 5] was −39.3% and the “NAD+” value [1, 5] was 0.040. The “NAD+/NADH” value [1, 5] was 0.139, the NADH [1, 5] was 0.289 and the NADtot [1, 5] was 0.329. The “Change in NAD+/NADH vs. Control” value [1, 6] was −87.2%, the “NAD+” value [1, 6] was 0.009 and the “NAD+/NADH” value [1, 6] was 0.029. The NADH [1, 6] was 0.294, the NADtot [1, 6] was 0.302 and the “Change in NAD+/NADH vs. Control” value [1, 7] was −64.6%. For the same compound, the “NAD+” value [1, 7] was 0.004, the “NAD+/NADH” value [1, 7] was 0.017 and the NADH [1, 7] was 0.239. For the same compound, the NADtot [1, 7] was 0.243, the “Change in NAD+/NADH vs. Control” value [1, 8] was −24.0% and the “NAD+” value [1, 8] was 0.009. For the same compound, the “NAD+/NADH” value [1, 8] was 0.037, the NADH [1, 8] was 0.232 and the NADtot [1, 8] was 0.240. The “glycerol levels increased compared to the control” value ([2]; 0.1 g/kg group) was 59%, the “increase in the concentration of free glycerol compared to the control samples” value ([2]; 0.1 g/kg group) was “roughly 0.17 g/kg” and the “Free glycerol concentration (hepatic, including extracellular matrix)” value ([2]; 0.1 g/kg per day in diet for 3 weeks, AA rats, n = 6, no acute dose) was 4.88 +/− 1.21 (6) * Micromoles Per Gram Wet Weight Tissue.

From patent US12083084B2, “Method for enhancing energy production and metabolism in cells” (REPLICON HEALTH OY, priority 2013, dated 2024)
